Laboratory results taken from paper PMC8523698, “Preclinical characterization of an intravenous coronavirus 3CL protease inhibitor for the potential treatment of COVID19” (Nature Communications, 2021).
pIC50: −log10 of the molar value. Several values for one entry are separate records, joined by “and”; a condition that tells them apart may be missing. Equal entries are not always repeated. Where two headings read alike, the source gives them in different places.

Columns and labels:
[1] = test system: SARS-CoV-2 Washington strain 1 (USA_WA1/2020); assay type: cell-based
[2] = test system: SARS-CoV-2 Belgium/GHB-03021/2020 strain; assay: microbe, parasite or virus in culture; assay type: cell-based; parameters: Percent Effect: scale not given: direction of the effect not stated beside the values
[3] = Plasma protein binding by equilibrium dialysis; settings: monkey plasma, 3.44 uM; for fraction unbound at 6 h, 3.44 uM: plasma
[4] = Plasma protein binding by equilibrium dialysis; settings: dog plasma, 3.44 uM; for fraction unbound at 6 h, 3.44 uM: dog, plasma
MATE1 = target: T1, MATE1 (Homo sapiens, UniProt Q96FL8); assay: Transporter inhibition using transfected HEK293 cells; settings: IC50, [14C]Metformin (20 µM)
T1 sequence (Q96FL8 1-570): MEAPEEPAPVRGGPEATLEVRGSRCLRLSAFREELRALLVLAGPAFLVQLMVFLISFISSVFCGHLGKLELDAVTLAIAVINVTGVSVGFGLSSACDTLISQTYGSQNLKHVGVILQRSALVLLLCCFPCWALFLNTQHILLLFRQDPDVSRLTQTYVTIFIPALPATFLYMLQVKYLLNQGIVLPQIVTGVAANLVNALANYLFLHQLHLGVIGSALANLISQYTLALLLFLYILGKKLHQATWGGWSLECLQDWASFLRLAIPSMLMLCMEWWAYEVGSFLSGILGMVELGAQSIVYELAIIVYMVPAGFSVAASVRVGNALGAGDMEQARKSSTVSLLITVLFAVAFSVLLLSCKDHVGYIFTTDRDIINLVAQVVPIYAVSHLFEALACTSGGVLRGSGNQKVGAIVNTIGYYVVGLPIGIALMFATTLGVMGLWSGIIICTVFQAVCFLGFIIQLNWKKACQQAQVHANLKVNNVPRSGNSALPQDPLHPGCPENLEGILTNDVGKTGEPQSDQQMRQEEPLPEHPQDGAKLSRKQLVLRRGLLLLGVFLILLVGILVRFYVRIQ

[5] = Plasma protein binding by equilibrium dialysis; settings: human plasma; for fraction unbound at 6 h, 3.44 uM / fraction unbound at 6 h: human, plasma
CYP2C19 = CYP2C19 (Homo sapiens, UniProt P33261); assay: Reversible CYP inhibition in human liver microsomes; settings: for activity at 0.01 µM / activity at 0.158 µM / activity at 0.398 µM / activity at 1 µM / activity at 15.8 µM / activity at 39.8 µM / activity at 100 µM: human, microsomes, pH 7.4, Percent of Control Activity; for activity at 39.8 µM: CYP 2C19, 39.8 µM
Sequence of CYP2C19 (P33261 whole entry): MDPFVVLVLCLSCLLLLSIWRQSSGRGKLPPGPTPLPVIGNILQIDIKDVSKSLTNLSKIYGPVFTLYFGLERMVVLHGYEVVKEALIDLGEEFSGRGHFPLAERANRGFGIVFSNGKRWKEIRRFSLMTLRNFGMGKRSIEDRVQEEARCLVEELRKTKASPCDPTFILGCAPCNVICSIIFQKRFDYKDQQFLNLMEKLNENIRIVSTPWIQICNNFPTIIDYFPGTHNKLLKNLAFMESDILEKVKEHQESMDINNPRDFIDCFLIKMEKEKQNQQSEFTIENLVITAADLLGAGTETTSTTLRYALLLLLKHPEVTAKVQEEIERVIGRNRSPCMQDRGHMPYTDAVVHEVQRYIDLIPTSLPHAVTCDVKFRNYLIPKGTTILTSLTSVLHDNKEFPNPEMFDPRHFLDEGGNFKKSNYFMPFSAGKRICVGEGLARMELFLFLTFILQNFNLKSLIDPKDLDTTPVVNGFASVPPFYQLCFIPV

OCT1 = target: T2, OCT1 (Homo sapiens, UniProt O15245); assay: Transporter inhibition using transfected HEK293 cells; assay type: in vitro ADME; settings: IC50, [14C]Metformin (10 µM)
T2 construct: expressed in transfected cells; host or cells: HEK293
T2 sequence (O15245 1-554): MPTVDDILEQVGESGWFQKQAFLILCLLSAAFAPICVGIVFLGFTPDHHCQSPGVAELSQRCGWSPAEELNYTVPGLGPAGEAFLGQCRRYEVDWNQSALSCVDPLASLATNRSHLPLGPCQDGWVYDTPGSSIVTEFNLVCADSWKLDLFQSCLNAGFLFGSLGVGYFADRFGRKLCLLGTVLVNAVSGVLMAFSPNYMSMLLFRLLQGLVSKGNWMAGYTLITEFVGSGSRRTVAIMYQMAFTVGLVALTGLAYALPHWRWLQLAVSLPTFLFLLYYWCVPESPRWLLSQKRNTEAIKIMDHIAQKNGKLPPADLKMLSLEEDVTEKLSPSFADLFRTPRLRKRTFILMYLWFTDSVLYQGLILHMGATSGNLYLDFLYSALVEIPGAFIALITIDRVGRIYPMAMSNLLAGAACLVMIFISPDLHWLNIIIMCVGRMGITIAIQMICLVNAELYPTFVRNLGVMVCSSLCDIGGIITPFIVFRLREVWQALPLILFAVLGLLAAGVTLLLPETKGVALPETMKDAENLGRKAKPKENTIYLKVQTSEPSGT

Q: With `COc1cccc2[nH]c(C(=O)N[C@@H](CC(C)C)C(=O)N[C@@H](C[C@@H]3CCNC3=O)C(=O)CO)cc12` [PF-00835231-00] as the compound, how does the “% Well Effect” value [1] read?
A: The value was 0.795%.

Q: What about the “Percent Effect” value [2] of the same compound?
A: Its value is 0.59%.

Q: For `COc1cccc2[nH]c(C(=O)N[C@@H](CC(C)C)C(=O)N[C@@H](C[C@@H]3CCNC3=O)C(=O)COP(=O)(O)O)cc12` [PF-07304814], which fraction unbound at 6 h, 3.44 uM ([3]; both, Cynomologous, cynomolgus monkey, pH 7.4, Individual fraction unbound, Cynomologous, male and female, Day 1) is on record?
A: Its fraction unbound at 6 h, 3.44 uM is 0.388.

Q: And the fraction unbound at 6 h, 3.44 uM ([3]; both, Cynomologous, cynomolgus monkey, pH 7.4, Individual fraction unbound, Cynomologous, male and female, Day 2)?
A: Its fraction unbound at 6 h, 3.44 uM is 0.356.

Q: What about the fraction unbound at 6 h, 3.44 uM ([3]; both, Cynomologous, cynomolgus monkey, pH 7.4, Individual fraction unbound, Cynomologous, male and female, Day 3) of the same compound?
A: Its fraction unbound at 6 h, 3.44 uM is 0.442.

Q: And the Individual fraction unbound ([3]; Cynomologous, male and female, Day 1)?
A: The Individual fraction unbound was 0.366 and 0.39 and 0.393.

Q: What about the Individual fraction unbound ([3]; Cynomologous, male and female, Day 2) of the same compound?
A: Its Individual fraction unbound is 0.318 and 0.315 and 0.319.

Q: What about the Individual fraction unbound ([3]; Cynomologous, male and female, Day 3) of the same compound?
A: Its Individual fraction unbound is 0.37 and 0.354 and 0.347.

Q: What about the fraction unbound at 6 h, 3.44 uM ([3]; monkey, pH 7.4, fraction unbound Geomean, n=12) of the same compound?
A: The fraction unbound at 6 h, 3.44 uM was 0.361.

Q: What about the fraction unbound at 6 h, 3.44 uM ([4]; both, Beagle, pH 7.4, Individual fraction unbound, Beagle, male and female, Day 1) of the same compound?
A: Its fraction unbound at 6 h, 3.44 uM is 0.322.

Q: What about the fraction unbound at 6 h, 3.44 uM ([4]; both, Beagle, pH 7.4, Individual fraction unbound, Beagle, male and female, Day 2) of the same compound?
A: The fraction unbound at 6 h, 3.44 uM was 0.344.

Q: What about the fraction unbound at 6 h, 3.44 uM ([4]; both, Beagle, pH 7.4, Individual fraction unbound, Beagle, male and female, Day 3) of the same compound?
A: Its fraction unbound at 6 h, 3.44 uM is 0.303.

Q: And the Individual fraction unbound ([4]; Beagle, male and female, Day 1)?
A: Its Individual fraction unbound is 0.288 and 0.267 and 0.276.

Q: What about the Individual fraction unbound ([4]; Beagle, male and female, Day 2) of the same compound?
A: The Individual fraction unbound was 0.33 and 0.389 and 0.349.

Q: And the Individual fraction unbound ([4]; Beagle, male and female, Day 3)?
A: The Individual fraction unbound was 0.301 and 0.285 and 0.313.

Q: What about the fraction unbound at 6 h, 3.44 uM ([4]; pH 7.4, fraction unbound Geomean, n=12) of the same compound?
A: Its fraction unbound at 6 h, 3.44 uM is 0.312.

Q: What about the pIC50 (MATE1) of the same compound?
A: The pIC50 was < 3.52.

Q: What about the Individual fraction unbound ([5]; 3.44 uM, replicates Day 1-3) of the same compound?
A: Its Individual fraction unbound is 0.199 and 0.194 and 0.181 and 0.192 and 0.178 and 0.182 and 0.198 and 0.168 and 0.191 and 0.180 and 0.167.

Q: And the fraction unbound at 6 h, 3.44 uM ([5]; pH 7.4, Fraction unbound, Geomean, 3.44 uM, n 12)?
A: Its fraction unbound at 6 h, 3.44 uM is 0.184.

Q: What about the fraction unbound at 6 h, 3.44 uM ([5]; pH 7.4, Individual fraction unbound, 3.44 uM, replicates Day 1-3) of the same compound?
A: The fraction unbound at 6 h, 3.44 uM was 0.186.

Q: And the fraction unbound at 6 h ([5]; pH 7.4, Measured plasma fu / Human plasma fu)?
A: Its fraction unbound at 6 h is 0.184.

Q: And the fraction unbound at 6 h ([5]; pH 7.4, Unbound fraction fu (%CV))?
A: Its fraction unbound at 6 h is 0.184.

Q: What about the fraction unbound at 6 h, 3.44 uM ([5]; pH 7.4, fraction unbound Geomean, 3.44 uM, n=12) of the same compound?
A: Its fraction unbound at 6 h, 3.44 uM is 0.184.

Q: What about the pIC50 (CYP2C19) of the same compound?
A: Its pIC50 is < 4.00.

Q: What about the “Percent of Control Activity” value (CYP2C19; CYP 2C19, 0.01 µM, Zero-Minute Preincubation, 0.01 µM) of the same compound?
A: Its value is 94.2%.

Q: And the “Percent of Control Activity” value (CYP2C19; CYP 2C19, 0.158 µM, 30-Minute Preincubation, 0.158 µM)?
A: Its value is 96.4%.

Q: And the “Percent of Control Activity” value (CYP2C19; CYP 2C19, 0.158 µM, Zero-Minute Preincubation, 0.158 µM)?
A: The value was 101.4%.

Q: And the “Percent of Control Activity” value (CYP2C19; CYP 2C19, 0.398 µM, 30-Minute Preincubation, 0.398 µM)?
A: The value was 100.7%.

Q: What about the “Percent of Control Activity” value (CYP2C19; CYP 2C19, 0.398 µM, Zero-Minute Preincubation, 0.398 µM) of the same compound?
A: The value was 97.9%.

Q: What about the “Percent of Control Activity” value (CYP2C19; CYP 2C19, 1 µM, 30-Minute Preincubation, 1 µM) of the same compound?
A: The value was 97.8%.

Q: And the “Percent of Control Activity” value (CYP2C19; CYP 2C19, 1 µM, Zero-Minute Preincubation, 1 µM)?
A: Its value is 102.1%.

Q: And the “Percent of Control Activity” value (CYP2C19; CYP 2C19, 15.8 µM, 30-Minute Preincubation, 15.8 µM)?
A: The value was 97.1%.

Q: And the “Percent of Control Activity” value (CYP2C19; CYP 2C19, 15.8 µM, Zero-Minute Preincubation, 15.8 µM)?
A: Its value is 107.2% and 102.9%.

Q: What about the “Percent of Control Activity” value (CYP2C19; CYP 2C19, 100 µM, 30-Minute Preincubation, 100 µM) of the same compound?
A: Its value is 97.8% and 97.1%.

Q: And the pIC50 (CYP2C19; S-Mephenytoin 4′-hydroxylation, T0)?
A: The pIC50 was < 4.00.

Q: What about the activity at 0.01 µM (CYP2C19; CYP 2C19, 0.01 µM, 30-Minute Preincubation) of the same compound?
A: The activity at 0.01 µM was 103%.

Q: What about the activity at 0.01 µM (CYP2C19; CYP 2C19, 0.01 µM, Zero-Minute Preincubation) of the same compound?
A: The activity at 0.01 µM was 99.3%.

Q: And the activity at 0.158 µM (CYP2C19; CYP 2C19, 0.158 µM, 30-Minute Preincubation)?
A: The activity at 0.158 µM was 100%.

Q: And the activity at 0.158 µM (CYP2C19; CYP 2C19, 0.158 µM, Zero-Minute Preincubation)?
A: Its activity at 0.158 µM is 94.4%.

Q: What about the activity at 0.398 µM (CYP2C19; CYP 2C19, 0.398 µM, 30-Minute Preincubation) of the same compound?
A: The activity at 0.398 µM was 102%.

Q: And the activity at 0.398 µM (CYP2C19; CYP 2C19, 0.398 µM, Zero-Minute Preincubation)?
A: Its activity at 0.398 µM is 96.5%.

Q: And the activity at 1 µM (CYP2C19; CYP 2C19, 1 µM, 30-Minute Preincubation)?
A: Its activity at 1 µM is 101%.

Q: And the activity at 1 µM (CYP2C19; CYP 2C19, 1 µM, Zero-Minute Preincubation)?
A: Its activity at 1 µM is 95.8%.

Q: What about the activity at 15.8 µM (CYP2C19; CYP 2C19, 15.8 µM, 30-Minute Preincubation) of the same compound?
A: Its activity at 15.8 µM is 102%.

Q: And the activity at 15.8 µM (CYP2C19; CYP 2C19, 15.8 µM, Zero-Minute Preincubation)?
A: The activity at 15.8 µM was 104%.

Q: And the activity at 39.8 µM (CYP2C19; 30-Minute Preincubation)?
A: The activity at 39.8 µM was 97.7%.

Q: And the activity at 39.8 µM (CYP2C19; Zero-Minute Preincubation)?
A: Its activity at 39.8 µM is 94.4%.

Q: And the activity at 100 µM (CYP2C19; CYP 2C19, 100 µM, 30-Minute Preincubation)?
A: Its activity at 100 µM is 95.5%.

Q: What about the activity at 100 µM (CYP2C19; CYP 2C19, 100 µM, Zero-Minute Preincubation) of the same compound?
A: The activity at 100 µM was 91.5%.

Q: And the pIC50 (OCT1)?
A: Its pIC50 is < 3.52.
